Reference: article PMC6858373 (Scientific Reports, 2019)
Values joined by “and” are separate entries in the source; they are usually repeats but may differ in a detail not shown here. Identical values can stand only once. Like-named read-outs stand apart in the source and are kept apart here.

Assays:
[1] = target: T1, FGF14:Nav1.6 C-tail complex (Homo sapiens, UniProt Q92915+Q9UQD0); assay: Split-luciferase complementation assay (LCA) in Clone V double stable HEK293 cells; assay type: cell-based; settings: for Split Luciferase Assay Z-score Set 1 / Split Luciferase Assay Z-score Set 2: normalized to on-plate 0.3% DMSO controls
T1 construct: polymerase chain reaction (PCR) amplification of the FGF14 open reading frame (nt 1–855); C-terminal fragment of Nav1.6 (amino acids 1763–1976) fused with CD4ΔC-tail (amino acids 1–395); expressed in transfected cells

[2] = target: full-length P. pyralis luciferase (Photinus pyralis, UniProt P08659, K549A/L550V/N119G/N50D/S548I); assay type: cell-based; settings: CC_NCI screening, normalized to on-plate 0.3% DMSO controls; for Luciferase Assay % Lum: full-length luciferase counter-screen luminescence; for Luciferase Assay Z-score: full-length luciferase counter-screen
[3] = system: Clone V cells; assay: CellTiter Blue (CTB) cell viability counter-screen; settings: CC_NCI screening, normalized to on-plate 0.3% DMSO controls; for Toxicity Assay % Fluor: CTB cell viability fluorescence; for Toxicity Assay Z-score: CTB cell viability
[4] = CC_NCI screening, LCA luminescence, biological replicate Set 1, normalized to on-plate 0.3% DMSO controls (n=16 per plate)
[5] = CC_NCI screening, LCA luminescence, biological replicate Set 2, normalized to on-plate 0.3% DMSO controls (n=16 per plate)
[6] = CC_NCI screening, LCA, biological replicate Set 1
[7] = CC_NCI screening, LCA, biological replicate Set 2
[8] = CC_NCI screening, average of Set 1 and Set 2, normalized to 0.3% DMSO controls

T1 sequence (Q92915 1-252 isoform Q92915-2): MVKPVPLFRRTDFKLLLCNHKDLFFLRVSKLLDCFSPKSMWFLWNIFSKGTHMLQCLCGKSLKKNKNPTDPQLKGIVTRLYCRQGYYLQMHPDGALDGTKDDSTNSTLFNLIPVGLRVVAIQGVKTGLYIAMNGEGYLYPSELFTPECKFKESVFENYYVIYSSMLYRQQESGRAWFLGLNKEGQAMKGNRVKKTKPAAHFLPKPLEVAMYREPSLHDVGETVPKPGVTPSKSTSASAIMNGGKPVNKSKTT
T1 sequence (Q9UQD0 1763-1976 limits assumed): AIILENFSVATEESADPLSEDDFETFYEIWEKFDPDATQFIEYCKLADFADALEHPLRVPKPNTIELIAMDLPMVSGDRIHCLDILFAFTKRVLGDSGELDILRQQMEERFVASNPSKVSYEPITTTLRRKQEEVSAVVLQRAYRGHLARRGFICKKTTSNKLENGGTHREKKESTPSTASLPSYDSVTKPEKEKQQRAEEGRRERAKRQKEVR
Sequence of full-length P. pyralis luciferase (P08659 whole entry N50D/N119G/S548I/K549A/L550V, looked up): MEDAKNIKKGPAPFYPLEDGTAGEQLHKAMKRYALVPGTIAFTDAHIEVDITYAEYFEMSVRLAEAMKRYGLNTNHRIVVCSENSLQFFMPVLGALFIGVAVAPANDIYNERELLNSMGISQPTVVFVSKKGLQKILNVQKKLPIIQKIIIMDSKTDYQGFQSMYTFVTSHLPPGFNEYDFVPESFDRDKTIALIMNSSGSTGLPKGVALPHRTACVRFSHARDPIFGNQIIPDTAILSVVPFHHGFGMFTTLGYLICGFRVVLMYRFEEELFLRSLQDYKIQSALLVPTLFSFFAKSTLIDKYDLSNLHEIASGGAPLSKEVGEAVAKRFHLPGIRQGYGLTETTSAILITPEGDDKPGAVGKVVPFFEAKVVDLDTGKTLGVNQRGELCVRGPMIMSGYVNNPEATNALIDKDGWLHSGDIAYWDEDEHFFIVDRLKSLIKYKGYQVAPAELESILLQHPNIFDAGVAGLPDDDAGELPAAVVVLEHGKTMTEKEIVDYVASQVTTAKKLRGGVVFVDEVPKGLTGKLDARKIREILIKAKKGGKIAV

Structure (SMILES) | Split Luciferase Assay % Lum Set 1 [1, 4] | Split Luciferase Assay %Lum Set 2 [1, 5] | Split Luciferase Assay Z-score Set 1 [1, 6] | Split Luciferase Assay Z-score Set 2 [1, 7] | Split Luciferase Assay %Lum Avg [1, 8] | Luciferase Assay % Lum [2] | Luciferase Assay Z-score [2] | Toxicity Assay % Fluor [3] | Toxicity Assay Z-score [3] | also measured
CO[C@H]1C[C@@H]2CC[C@@H](C)[C@@](O)(O2)C(=O)C(=O)N2CCCC[C@H]2C(=O)O[C@H]([C@H](C)C[C@@H]2CC[C@@H](OCCO)[C@H](OC)C2)CC(=O)[C@H](C)/C=C(\C)[C@@H](O)[C@@H](OC)C(=O)[C@H](C)C[C@H](C)/C=C/C=C/C=C/1C [Everolimus] | 76.42% | 84.27% | -1.91 | -1.28 | 80.34% | 72.79% | -3.48 | 91.22% | -1.23 | 
C=C1C[C@@H]2[C@H](CC[C@]3(C)C(=O)CC[C@@H]23)[C@@]2(C)C=CC(=O)C=C12 [Exemestane] |  |  | 0.73 | -0.26 |  | 90.38% | -1.23 | 91.81% | -1.14 | Split Luciferase Assay % Lum Set 1 [1]: 109.04%; Split Luciferase Assay %Lum Avg [1]: 102.89%; Split Luciferase Assay %Lum Set 2 [1]: 96.75%
C[C@]12CC[C@@H]3c4ccc(O)cc4C[C@@H](CCCCCCCCC[S+]([O-])CCCC(F)(F)C(F)(F)F)[C@H]3[C@@H]1CC[C@@H]2O (stereo partly drawn) [Fulvestrant] | 94.90% | 91.55% | -0.41 | -0.69 | 93.23% | 83.45% | -2.12 | 83.63% | -2.29 | 
Nc1cccc2c1CN(C1CCC(=O)NC1=O)C2=O (stereo not drawn) [Lenalidomide] | 144.91% and 107.95% | 144.60% and 129.00% | 3.63 and 0.64 | 3.63 and 2.36 | 144.76% and 118.47% | 104.96% and 92.77% |  | 84.86% and 92.38% |  | 
C[C@]12O[C@H](C[C@]1(O)CO)n1c3ccccc3c3c4c(c5c6ccccc6n2c5c31)CNC4=O [Lestaurtinib, reference compound] | 50.33% | 40.57% | -4.01 | -4.84 | 45.45% | 87.58% | -1.59 | 90.16% |  | Z-score (LCA primary screening) ([1]; 30 µM, 384-well, average of primary screening (n = 2), vs on-plate 0.3% DMSO): −4.42; dose-response behavior of repurchased compounds ([1]; 10-point dose response 0.25-50 µM, Clone V cells): purely inhibitory effects; IC50 ([1]; IC50 (µM), estimated, 8-point dose response 0.25-30 µM, n = 4 per concentration, library compounds): 1.22 µM; IMin (% Luminescence) ([1]; antagonists, Clone V cells, 384-well, normalized to DMSO): 45.45 % Luminescence; action toward the FGF14:Nav1.6 C-tail interaction ([1]; dose-dependency validation using fresh compound samples): acted as antagonists; IC50 ([1]; in-cell IC50, repurchased compounds, 10-point dose response 0.25-50 µM, n = 8 per concentration, Clone V cells, 384-well): 0.95 µM
Cc1ccc(NC(=O)c2ccc(CN3CCN(C)CC3)cc2)cc1Nc1nc(-c2cccnc2)cs1 [MASITINIB] | 5.76% | 16.64% | -7.62 | -6.78 | 11.20% | 52.92% | -6.03 | 86.99% | -1.82 | 
Cc1nc2c(O)cccc2c(=O)[nH]1 [NU 1025] |  |  |  |  |  |  |  |  |  | Split Luciferase Assay Z-score Set 1 ([1]; CC_NCI screening, biological replicate Set 1): -0.32; Split Luciferase Assay % Lum Set 1 ([1]; CC_NCI screening, biological replicate Set 1, normalized to on-plate 0.3% DMSO controls (n=16 per plate)): 95.99%; Split Luciferase Assay Z-score Set 2 ([1]; CC_NCI screening, biological replicate Set 2): -4.33; Split Luciferase Assay %Lum Set 2 ([1]; CC_NCI screening, biological replicate Set 2, normalized to on-plate 0.3% DMSO controls (n=16 per plate)): 46.81%; Split Luciferase Assay %Lum Avg ([1]; average of Set 1 and Set 2, normalized to 0.3% DMSO controls): 71.40%; Luciferase Assay % Lum (full-length luciferase counter-screen) [2]: 89.72%; Luciferase Assay Z-score (full-length luciferase counter-screen) [2]: -1.32; Toxicity Assay % Fluor (CTB cell viability fluorescence) [3]: 111.16%; Toxicity Assay Z-score (CTB cell viability) [3]: 1.56
Cc1ccc(Nc2nccc(N(C)c3ccc4c(C)n(C)nc4c3)n2)cc1S(N)(=O)=O [PAZOPANIB] | 100.34% | 122.76% | 0.03 | 1.85 | 111.55% | 97.40% | -0.33 | 86.91% | -1.83 | 
CCCCCCCCCCCCCCCCCCOP(=O)([O-])OC1CC[N+](C)(C)CC1 [PERIFOSINE] | 86.21% | 89.47% | -1.11 | -0.86 | 87.84% | 103.68% | 0.47 | 83.07% | -2.37 | 
CCCS(=O)(=O)Nc1ccc(F)c(C(=O)c2c[nH]c3ncc(-c4ccc(Cl)cc4)cc23)c1F [PLX4032] | 51.42% | 47.85% | -3.93 | -4.24 | 49.64% | 83.18% | -2.15 | 81.90% | -2.53 | 
Nc1nc2[nH]cc(CCc3ccc(C(=O)N[C@@H](CCC(=O)O)C(=O)O)cc3)c2c(=O)[nH]1 [Pemetrexed] | 112.30% | 110.27% | 0.99 | 0.84 | 111.29% | 94.26% | -0.73 | 94.67% | -0.74 | 
C#CCC(Cc1cnc2nc(N)nc(N)c2n1)c1ccc(C(=O)N[C@@H](CCC(=O)O)C(=O)O)cc1 (stereo partly drawn) [Pralatrexate] | 117.73% | 106.11% | 1.43 | 0.50 | 111.92% | 103.37% | 0.43 | 96.60% | -0.47 | 
CO[C@H]1C[C@@H]2CC[C@@H](C)[C@@](O)(O2)C(=O)C(=O)N2CCCC[C@H]2C(=O)O[C@H]([C@H](C)C[C@@H]2CC[C@@H](O)[C@H](OC)C2)CC(=O)[C@H](C)/C=C(\C)[C@@H](O)[C@@H](OC)C(=O)[C@H](C)C[C@H](C)/C=C/C=C/C=C/1C [RAPAMYCIN] | 95.99% | 74.90% | -0.32 | -2.04 | 85.45% | 77.09% | -2.93 | 110.83% | 1.51 | 
CNC(=O)c1cc(Oc2ccc(NC(=O)Nc3ccc(Cl)c(C(F)(F)F)c3)c(F)c2)ccn1 [Regorafenib] | 43.81% | 47.85% | -4.54 | -4.24 | 45.83% | 83.68% | -2.09 | 88.66% | -1.59 | 
CN1CCN(CCOc2cc(OC3CCOCC3)c3c(Nc4c(Cl)ccc5c4OCO5)ncnc3c2)CC1 [SARACATINIB] | 85.12% | 98.83% | -1.20 | -0.10 | 91.97% | 107.97% | 1.02 | 108.09% | 1.13 | 
CN(N=O)C(=O)N[C@@H](C=O)[C@@H](O)[C@H](O)[C@H](O)CO [Streptozocin] | 130.78% | 124.84% | 2.49 | 2.02 | 127.81% | 99.54% | -0.06 | 96.94% | -0.43 | 
